Patent publication US20220273759A1, “PHARMACEUTICAL ASSOCIATION FOR CONVERTING A NEOPLASTIC CELL INTO A NON-NEOPLASTIC CELL AND USES THEREOF” (HISTIDE AG, priority 2015, published 2022)
Where no end group is shown, it is not given here.

Experiments:
[1] = system: neoplastic cells (osteosarcoma cells); assay: Immunofluorescence visualization of neoplastic cells cultured on a polymer scaffold covalently modified with a GFR-binding compound and a RGD peptide; type: cell-based; conditions: polymer scaffold covalently modified with a mixture of GFR-binding compound and RGD peptide; after 24 hours of culture
Description: (b) Immunofluorescence visualization of a neoplastic cell (osteosarcoma cells) after silencing integrins α3β1 by using shRNAs, after 24 hours of culture on a polymer scaffold covalently grafted with RGD peptides. […] The actin filaments were immunostained by using Alexa 488-phalloidin. The focal adhesions were represented by immunostaining with anti-vinculin. The nucleus was stained with DAPI and is represented by a circle in the center of the cell. Scale bar: 5 μm. (c) Immunofluorescence visualization of neoplastic cells cultured on a polymer scaffold covalently modified with a mixture comprising a GFR-binding compound as defined herein (SEQ ID NO: 2) and a RGD peptide, after 24 hours of culture. Scale bar: 500 μm. […] The actin filaments were immunostained by using Alexa 488-phalloidin. The focal adhesions were represented by immunostaining with anti-vinculin. The nucleus was stained with DAPI and is represented by a circle in the center of the cell.

[2] = system: human rhabdosarcoma cells; assay: Recoding via quantification of pRB and P53, rhabdosarcoma cells; type: cell-based; conditions: Table 6, peptide in association with PET
Description: (§1) The cells were first fixed for 20 min with 4% paraformaldehyde/PBS at 4° C. After fixation, the cells were permeabilized in PBS containing 1% Triton X-100 for 15 min. Protein immunofluorescent visualization was performed by first treating the cells with 1% (v/v) specific monoclonal antibodies for 1 hour at 37° C. Then the samples were incubated with Alexa Fluor® 568 or 647 (F(ab′)2 fragment of IgG(H+L)) during 30 min at room temperature. The cell nuclei were counterstained in 20 ng/mL DAPI for 10 min at room temperature.
(§2) For this type of quantification the freeware image analysis ImageJ® software was used. The raw image was first converted to an 8-bit file, and then the unsharp mask feature was used (settings 1:0.2) to remove the image background (rolling ball radius 10). After smoothing, the resulting image, which appears similar to the original photomicrograph but with minimal background, was then converted to a binary image by setting a threshold. Threshold values were determined empirically by selecting a setting, which gave the most accurate binary image for a subset of randomly selected photomicrographs. The cell area was determined by manual delineation on raw fluorescent images. Total contact area and mean contact area per cell were calculated by “analyse particules” in ImageJ®. A minimum of 50 cells per condition were analyzed. […]

[3] = system: mesenchymal chondrosarcoma cells; assay: Recoding via quantification of pRB and P53, chondrosarcoma cells; type: cell-based; conditions: Table 6, peptide in association with PET
Description: as §1, §2

[4] = system: Cyclin D (Cyclin D1, Cyclin D2 and Cyclin D3); assay: Cyclin D profile by RT-PCR in osteosarcoma cells; type: cell-based; conditions: PET carrier, after the first 30 min of cell culture
Text: There are many ways to test, measure and represent the inhibitory effect of a given substance on the gene or protein expression of cyclins D, but for the purpose of the present disclosure, and for the avoidance of any doubts, the inhibition values of a given pharmaceutical association or composition as defined herein is a measure of the gene expression of cyclins D as provided by RT-PCR. It is to be understood that the values of the gene expression of cyclins D disclosed herein correspond to the total gene expression of all cyclins D present in the tested cell i.e. D1, D2 and D3 as known at the date of the present disclosure.
(§3) After 24 hours of culture, total RNA was extracted by using the RNeasy total RNA kit (Qiagen®) according to the manufacturer's instructions. Purified total RNA was used as a template in order to make cDNA by a reverse transcription reaction (Gibco Brl®) with random primers (Invitrogen®). The cDNA was then used as a template for a real-time PCR amplification in the presence of SYBR green reagents (Bio-Rad®) by using a thermocycler (iCycler, Biorad®). Data were analyzed with the iCycler IQ™® software and compared by the ΔΔCt method. Briefly, the mean Ct value of the target gene was normalized to its averaged Ct values of the housekeeping gene (GAPDH) to give a ΔCt value, which was then normalized to a control sample to obtain a ΔΔCt value. The results were obtained from two series of experiments performed in triplicate.
Neoplastic cells (in this example osteosarcoma cells) were cultured on pharmaceutical associations comprising PET as a bioactive carrier and one of GFR-binding compounds of SEQ ID NO: 12, 19, 30 or 39. […]

[5] = system: Paxillin; assay: Paxillin gene expression by RT-PCR in osteosarcoma cells; type: cell-based; conditions: PET carrier, after 24 hours
Description: as §3
(§4) Neoplastic cells (in this example osteosarcoma cells) were cultured on pharmaceutical associations comprising PET as a bioactive carrier and one of GFR-binding compounds of SEQ ID NO: 12, 19, 30 or 39. After 24 hours, the Paxillin and Vinculin gene expression decreased as shown by RT-PCR (FIG. 9).

[6] = Adhesion checkpoint activation, western blot of PDK1 in osteosarcoma cells; type: cell-based; conditions: PET carrier, after 24 hours
Description: (§5) After 24 hours of culture, cells were permeabilized (10% SDS, 25 mM NaCl, 10 nM pepstatin and 10 nM leupeptin in distilled water and loading buffer), boiled for 10 minutes and resolved by reducing PAGE (Invitrogen). Proteins were transferred onto nitrocellulose, blocked, and labeled with HRP-conjugated antibodies (Invitrogen). […] Phosphor-Smad1/5/8 was blotted by treating the nitrocellulose with monoclonal anti-p-Smad1/5/8 (Santa Cruz Biotechnology). For all of the experiments the western blot was performed in triplicate, along with an additional blot for actin and coomassie blue staining to ensure constant protein load among samples.
(§6) Neoplastic cells (in this example osteosarcoma cells) were cultured on pharmaceutical associations comprising PET as a bioactive carrier and one of GFR-binding compounds of SEQ ID NO: 12, 19, 30 or 39. The main signaling pathways include: Ras/MAP kinase, FAK/Src kinase and PIP2 which are decreased after 24 hours as shown by western blot quantifications (FIG. 8). […] Finally, a decrease of 3-phosphoinositide-dependent protein kinase 1 (PDK1) protein expression was also was observed (FIG. 8C).

[7] = system: Ras/MAP kinase; assay: Adhesion checkpoint activation, western blot of ERK phosphorylation in osteosarcoma cells; type: cell-based; conditions: PET carrier, after 24 hours
Description: as §5, §6

[8] = system: Vinculin; assay: Vinculin gene expression by RT-PCR in osteosarcoma cells; type: cell-based; conditions: PET carrier, after 24 hours
Description: as §3, §4

[9] = Stability of non-covalent association (release of FITC-labelled GFR-binding compound from carrier); type: physicochemical; conditions: after 3, 7 or 10 days
Description: Non-covalent associations of the bioactive carriers were performed under atmospheric conditions (air) at room temperature (about 22° C.). The non-covalent association was carried out using a mixture of GFR-binding compound of SEQ ID NO: 9 (concentration of 1×10^−3 M) with the apatite ceramics or a mixture of GFR-binding compound of SEQ ID NO: 10 (concentration of 1×10^−3 M) with the type-I collagen sponge. The non-covalent pharmaceutical associations were characterized by covalently associating fluorescent GFR-binding compounds of SEQ ID NO: 9 and 10 (covalently bound to fluorescein isothiocyanate (FITC), FIG. 1).

Substance | P53 (%) [2] [%] | pRB (%) [2] [%] | P53 (%) [3] [%] | pRB (%) [3] [%] | further results
SEQ ID NO: 2: GFR-binding compound as defined herein, covalently grafted on a polymer scaffold in a mixture with a RGD peptide (YVPKPSSAPTKLNAISTLYF; also: covalently grafted on a polymer scaffold) |  |  |  |  | morphology of neoplastic cells (immunofluorescence: actin, vinculin, DAPI) [1]: Spheroid-like structures of neoplastic cells become predominant
KIPKASSTQVRLRPVQIRKI (Non-cyclic GFR-binding peptide) [SEQ ID NO: 211] | 42 | 19 |  |  | 
KIPKASSTQVGQSATSILYY (Non-cyclic GFR-binding peptide) [SEQ ID NO: 219] |  |  | 31 | 14 | 
KIPKASSVSQQLEPISTLYL (Non-cyclic GFR-binding peptide) [SEQ ID NO: 223] |  |  | 29 | 9 | 
SEQ ID NO: 39: GFR-binding compound of the sequence listing, tested on PET as bioactive carrier; sequence not shown in this part (KIPKASSVPTELEPLPILYF; Non-cyclic GFR-binding peptide) |  |  |  |  | Cyclin D gene expression (arithmetic mean of Cyclin D1, D2 and D3) [4]: decreased; Paxillin gene expression [5]: decreased; 3-phosphoinositide-dependent protein kinase 1 (PDK1) protein expression [6]: decrease; phosphorylation at Thr202 and Tyr204 on ERK [7]: absence of phosphorylation; Vinculin gene expression [8]: decreased
AASKASSSRVELRSVKIAKV (Non-cyclic GFR-binding peptide) [SEQ ID NO: 210] | 42 | 22 |  |  | 
STPPTSSVPTEVSPINTLYF (Non-cyclic GFR-binding peptide) [SEQ ID NO: 224] |  |  | 26 | 13 | 
RVPSTSSTQVDLNAISVLYF (Non-cyclic GFR-binding peptide) [SEQ ID NO: 217] | 24 | 18 |  |  | 
RVPSTSSTQVKMSAISMLYL (Non-cyclic GFR-binding peptide) [SEQ ID NO: 213] | 26 | 12 |  |  | 
SEQ ID NO: 10: GFR-binding compound of the sequence listing, non-covalently associated with type-I collagen sponge; sequence not shown in this part (KVGKASSVPTKLSAISTLYL; Non-cyclic GFR-binding peptide) |  |  |  |  | release of GFR-binding compounds from the carrier [9]: no significant release
GIPEPSSVSQELSATSMLYY (Non-cyclic GFR-binding peptide) [SEQ ID NO: 218] |  |  | 28 | 17 | 
SEQ ID NO: 19: GFR-binding compound of the sequence listing, tested on PET as bioactive carrier; sequence not shown in this part (RKIPKAGGVPTELSAISTLYL; Non-cyclic GFR-binding peptide) |  |  |  |  | Cyclin D gene expression (arithmetic mean of Cyclin D1, D2 and D3) [4]: decreased; Paxillin gene expression [5]: decreased; 3-phosphoinositide-dependent protein kinase 1 (PDK1) protein expression [6]: decrease; phosphorylation at Thr202 and Tyr204 on ERK [7]: absence of phosphorylation; Vinculin gene expression [8]: decreased
GIPEPSSVSQEESSLSTLFF (Non-cyclic GFR-binding peptide) [SEQ ID NO: 214] | 31 | 18 |  |  | 
STPPTSSAPVGQSPISMLYI (Non-cyclic GFR-binding peptide) [SEQ ID NO: 220] |  |  | 34 | 15 | 
GIPEPSSAPTRLEPISMLYL (Non-cyclic GFR-binding peptide) [SEQ ID NO: 222] |  |  | 36 | 8 | 
AASKASSTPTDLNAISTLYF (Non-cyclic GFR-binding peptide) [SEQ ID NO: 216] | 27 | 19 |  |  | 
SEQ ID NO: 12: GFR-binding compound of the sequence listing, tested on PET as bioactive carrier; sequence not shown in this part (KVPKASSVPTELSAISTLYL; Non-cyclic GFR-binding peptide) |  |  |  |  | Cyclin D gene expression (arithmetic mean of Cyclin D1, D2 and D3) [4]: decreased; Paxillin gene expression [5]: decreased; 3-phosphoinositide-dependent protein kinase 1 (PDK1) protein expression [6]: decrease; phosphorylation at Thr202 and Tyr204 on ERK [7]: absence of phosphorylation; Vinculin gene expression [8]: decreased
STPPTSSSRVQLSAISMLYL (Non-cyclic GFR-binding peptide) [SEQ ID NO: 212] | 27 | 11 |  |  | 
SEQ ID NO: 30: GFR-binding compound of the sequence listing, tested on PET as bioactive carrier; sequence not shown in this part (KIPKASSVPTELEPLPIVYY; Non-cyclic GFR-binding peptide) |  |  |  |  | Cyclin D gene expression (arithmetic mean of Cyclin D1, D2 and D3) [4]: decreased; Paxillin gene expression [5]: decreased; 3-phosphoinositide-dependent protein kinase 1 (PDK1) protein expression [6]: decrease; phosphorylation at Thr202 and Tyr204 on ERK [7]: absence of phosphorylation; Vinculin gene expression [8]: decreased
KIPKASSSRVRLSSLSTLFF (Non-cyclic GFR-binding peptide) [SEQ ID NO: 215] | 30 | 19 |  |  | 
SEQ ID NO: 9: GFR-binding compound of the sequence listing, non-covalently associated with apatite ceramics; sequence not shown in this part (AVPKASSAPTKLSAISMLYL; Non-cyclic GFR-binding peptide) |  |  |  |  | release of GFR-binding compounds from the carrier [9]: no significant release
KIPKASSTPTRLSPISMLFI (Non-cyclic GFR-binding peptide) [SEQ ID NO: 221] |  |  | 37 | 21 | 
